Patent publication US20220193081A1 (Ellamed IP & Services PTE. LTD., priority 2019, published 2022)

Legend:
Assay type in all cases: physicochemical
[1] = Ionic strength study, visual inspection: sildenafil citrate and sucralose in absolute alcohol mixed with equal volume of NaCl solution or purified water (Example 3)
Experimental: (§1) The mixtures were then either placed on storage or NaOH 1N solution was introduced to reach a predetermined pH values. Before being placed on storage, and at time points 7 and 42 days, the concentration of sildenafil in the mixtures were assayed using HPLC. The samples were then stored at either −20° C., 2-8° C. or 25° C. for periods of up to 42 days. Periodically, the samples were visually inspected for evidence of crystallization.

[2] = HPLC assay on storage of sildenafil citrate in buffered 60% aqueous ethanol (Example 4); conditions: pH 5.5, NaOH
Experimental: as §1, with “Before” for “The mixtures were then either placed on storage or NaOH 1N solution was introduced to reach a predetermined pH values. Before”

[3] = HPLC assay on storage of sildenafil citrate with equal concentration of sucralose in pH adjusted 50% ethanol (Example 2)
Experimental: At room temperature, a phosphate buffer was prepared by weighing 3.9 g of NaH2PO4.2H2O into a 500 mL volumetric flask and adding approximately 300 mL of purified water until the phosphate fully dissolved. The pH was then adjusted to 7 with the introduction of NaOH and dilute to the requisite volume by the further addition of purified water.
A 50% ethanol mixture was prepared by introducing either purified water, taken from a MilliQ™ unit or phosphate buffer, to equivalent volumes of Ph.Eur. grade absolute alcohol. The pH of the resultant mixture was then adjusted by using either NaOH 1N solutions and/or Sodium Citrate 1N solutions to reach predetermined pH values.
Samples of sucralose were then dissolved in the pH adjusted 50% ethanol, whilst stirred with a magnetic stirrer and a needle, to a predetermined concentration. […] After preparation, the solutions were each filtered through PDVF 0.22 micro filter of 13 mm in size and placed in polypropylene containers of adequate volume.
Before being placed on storage, and at time points 7 and 42 days, the concentration of sildenafil in the mixture was assayed using HPLC. The samples were then stored at either −20° C., 2-8° C. or 25° C. for periods of up to 42 days. Periodically, the samples were visually inspected for evidence of precipitation or crystallization. […]
The samples of 21 mg/ml at a pH of 5.6 were maintained in stability testing at 25° C. for a total of 285 days.

CCCc1nn(C)c2c(=O)nc(-c3cc(S(=O)(=O)N4CCN(C)CC4)ccc3OCC)[nH]c12.O=C(O)CC(O)(CC(=O)O)C(=O)O [sildenafil citrate, 1-[[3-(4,7-Dihydro-1-methyl-7-oxo-3-propyl-1H-pyrazolo[4,3-d]pyrimidin-5-yl)-4-ethoxyphenyl]sulfonyl]-4-methylpiperazine citrate salt]
visual inspection for crystallization ([1]; 15 mg/ml, pH 4.39, NaCl diluent 100 mM, initially added to 40 ml of diluent, −20° C.): Prec. | visual inspection for crystallization ([1]; 15 mg/ml, pH 4.45, NaCl diluent 50 mM, −20° C.): Prec. | visual inspection for crystallization ([1]; 15 mg/ml, pH 4.52, NaCl diluent 25 mM, 2-8° C.): Prec. | visual inspection for crystallization ([1]; 15 mg/ml, pH 4.52, NaCl diluent 25 mM, −20° C.): Prec. | visual inspection for crystallization ([1]; 15 mg/ml, pH 4.75, purified water diluent, 2-8° C.): Prec. | visual inspection for crystallization ([1]; 15 mg/ml, pH 4.75, purified water diluent, −20° C.): Prec. | visual inspection for crystallization ([1]; 18 mg/ml, pH 5.5 (NaOH), NaCl diluent 100 mM, −20° C.): Prec. | visual inspection for crystallization ([1]; 21 mg/ml, pH 5.5 (NaOH), NaCl diluent 100 mM, −20° C.): Prec. | concentration of sildenafil by HPLC ([2]; 18 mg/ml, with sucralose, 2-8 ° C., Day 7): 18550 µg/mL | concentration of sildenafil by HPLC ([2]; 18 mg/ml, with sucralose, 2-8 ° C., Day 42): 15240 µg/mL | concentration of sildenafil by HPLC ([2]; 18 mg/ml, with sucralose, 25 ° C., Day 7): 18000 µg/mL | concentration of sildenafil by HPLC ([2]; 18 mg/ml, with sucralose, 25 ° C., Day 42): 17940 µg/mL | concentration of sildenafil by HPLC ([2]; 18 mg/ml, with sucralose, Day 0): 17560 µg/mL | concentration of sildenafil by HPLC ([2]; 18 mg/ml, without sucralose, 2-8 ° C., Day 7): 18330 µg/mL | concentration of sildenafil by HPLC ([2]; 18 mg/ml, without sucralose, 2-8 ° C., Day 42): 15230 µg/mL | concentration of sildenafil by HPLC ([2]; 18 mg/ml, without sucralose, 25 ° C., Day 7): 18080 µg/mL | concentration of sildenafil by HPLC ([2]; 18 mg/ml, without sucralose, 25 ° C., Day 42): 17190 µg/mL | concentration of sildenafil by HPLC ([2]; 18 mg/ml, without sucralose, Day 0): 17420 µg/mL | concentration of sildenafil by HPLC ([2]; 21 mg/ml, without sucralose, 2-8 ° C., Day 7): 22110 µg/mL | concentration of sildenafil by HPLC ([2]; 21 mg/ml, without sucralose, 2-8 ° C., Day 42): 13780 µg/mL | concentration of sildenafil by HPLC ([2]; 21 mg/ml, without sucralose, 25 ° C., Day 7): 20400 µg/mL | concentration of sildenafil by HPLC ([2]; 21 mg/ml, without sucralose, 25 ° C., Day 42): 19610 µg/mL | concentration of sildenafil by HPLC ([2]; 21 mg/ml, without sucralose, Day 0): 20520 µg/mL | concentration of sildenafil by HPLC ([3]; 15 mg/ml, pH 5.0, Sodium Citrate, 2-8 ° C., Day 7): 11050 µg/mL | concentration of sildenafil by HPLC ([3]; 15 mg/ml, pH 5.0, Sodium Citrate, 25 ° C., Day 7): 14890 µg/mL | concentration of sildenafil by HPLC ([3]; 15 mg/ml, pH 5.0, Sodium Citrate, Day 0): 15220 µg/mL | concentration of sildenafil by HPLC ([3]; 15 mg/ml, pH 5.2, NaOH, 2-8 ° C., Day 7): 14990 µg/mL | concentration of sildenafil by HPLC ([3]; 15 mg/ml, pH 5.2, NaOH, 25 ° C., Day 7): 15010 µg/mL | concentration of sildenafil by HPLC ([3]; 15 mg/ml, pH 5.2, NaOH, Day 0): 15050 µg/mL | concentration of sildenafil by HPLC ([3]; 15 mg/ml, pH 5.24, NaOH, 50% ethanol/phosphate buffer, 2-8 ° C., Day 7): 14970 µg/mL | concentration of sildenafil by HPLC ([3]; 15 mg/ml, pH 5.24, NaOH, 50% ethanol/phosphate buffer, 25 ° C., Day 7): 15010 µg/mL | concentration of sildenafil by HPLC ([3]; 15 mg/ml, pH 5.24, NaOH, 50% ethanol/phosphate buffer, Day 0): 15060 µg/mL | concentration of sildenafil by HPLC ([3]; 15 mg/ml, pH 5.6, NaOH, 2-8 ° C., Day 7): 15030 µg/mL | concentration of sildenafil by HPLC ([3]; 15 mg/ml, pH 5.6, NaOH, 2-8 ° C., Day 42): 15050 µg/mL | concentration of sildenafil by HPLC ([3]; 15 mg/ml, pH 5.6, NaOH, 25 ° C., Day 7): 14930 µg/mL | concentration of sildenafil by HPLC ([3]; 15 mg/ml, pH 5.6, NaOH, 25 ° C., Day 42): 14970 µg/mL | concentration of sildenafil by HPLC ([3]; 15 mg/ml, pH 5.6, NaOH, 50% ethanol/phosphate buffer, 2-8 ° C., Day 7): 14920 µg/mL | concentration of sildenafil by HPLC ([3]; 15 mg/ml, pH 5.6, NaOH, 50% ethanol/phosphate buffer, 25 ° C., Day 7): 14940 µg/mL | concentration of sildenafil by HPLC ([3]; 15 mg/ml, pH 5.6, NaOH, 50% ethanol/phosphate buffer, Day 0): 14960 µg/mL | concentration of sildenafil by HPLC ([3]; 15 mg/ml, pH 5.6, NaOH, Day 0): 15140 µg/mL | concentration of sildenafil by HPLC ([3]; 15 mg/ml, pH 5.6, Sodium Citrate, 2-8 ° C., Day 7): 14800 µg/mL | concentration of sildenafil by HPLC ([3]; 15 mg/ml, pH 5.6, Sodium Citrate, 2-8 ° C., Day 42): 15040 µg/mL | concentration of sildenafil by HPLC ([3]; 15 mg/ml, pH 5.6, Sodium Citrate, 25 ° C., Day 7): 14790 µg/mL | concentration of sildenafil by HPLC ([3]; 15 mg/ml, pH 5.6, Sodium Citrate, 25 ° C., Day 42): 14880 µg/mL | concentration of sildenafil by HPLC ([3]; 15 mg/ml, pH 5.6, Sodium Citrate, Day 0): 14920 µg/mL | concentration of sildenafil by HPLC ([3]; 15 mg/ml, pH 6.01, NaOH, 50% ethanol/phosphate buffer, 2-8 ° C., Day 7): 14690 µg/mL | concentration of sildenafil by HPLC ([3]; 15 mg/ml, pH 6.01, NaOH, 50% ethanol/phosphate buffer, 25 ° C., Day 7): 14830 µg/mL | concentration of sildenafil by HPLC ([3]; 15 mg/ml, pH 6.01, NaOH, 50% ethanol/phosphate buffer, Day 0): 14830 µg/mL | concentration of sildenafil by HPLC ([3]; 15 mg/ml, pH 6.2, NaOH, 2-8 ° C., Day 7): 10420 µg/mL | concentration of sildenafil by HPLC ([3]; 15 mg/ml, pH 6.2, NaOH, 25 ° C., Day 7): 11750 µg/mL | concentration of sildenafil by HPLC ([3]; 15 mg/ml, pH 6.2, NaOH, Day 0): 15140 µg/mL | concentration of sildenafil by HPLC ([3]; 15 mg/ml, pH 6.2, Sodium Citrate, 2-8 ° C., Day 7): 11110 µg/mL | concentration of sildenafil by HPLC ([3]; 15 mg/ml, pH 6.2, Sodium Citrate, 25 ° C., Day 7): 12100 µg/mL | concentration of sildenafil by HPLC ([3]; 15 mg/ml, pH 6.2, Sodium Citrate, Day 0): 14750 µg/mL | concentration of sildenafil by HPLC ([3]; 18 mg/ml, pH 5.2, NaOH, 2-8 ° C., Day 7): 17890 µg/mL | concentration of sildenafil by HPLC ([3]; 18 mg/ml, pH 5.2, NaOH, 25 ° C., Day 7): 17930 µg/mL | concentration of sildenafil by HPLC ([3]; 18 mg/ml, pH 5.2, NaOH, Day 0): 18230 µg/mL
